In US5521193A, “Benzimidazole compounds” (G. D. Searle & Co., priority 1995, dated 1996):

Experiments:
5-HT3 = assay: Bezold-Jarisch Reflex (inhibition of 5-HT-induced bradycardia in anesthetized mice); assay type: in vivo; conditions: i.p., 30 min before 5-HT 0.25 mg/kg i.v.; >50 percent reduction in bradycardic response vs vehicle considered significant; pentobarbital anesthetized mice
Description: (§1) 5-HT4 agonist activity was determined in the in vitro rat tunice muscularis mucosae (TMM) assay. (Baxter et el., Naunyn Schmied Arch. Pharmacol, 1991, 343,439). The 5-HT4 agonist or antagonist activity and/or 5-HT3 antagonist activity of the compounds of the invention herein, can be determined by the assays as described herein, without undue experimention.
The compound to be evaluated was administered i.p. (mg/kg) to a group of 3 mice. […] A greater than 50 percent (>50) reduction in the bradycardic response relative to vehicle-treated control mice was considered significant.
This method has been described by Saxena, P. R. and Lawang, A., Arch. Int. Pharmacodyn., 277:235-252, 1985.
The assay results for the compounds of the present invention and their Minimum Effective Dose (MED) and the reference compounds and their MEDs are recorded in Table I.

5-HT4 receptor = target: T1, 5-HT4 receptor (Rattus norvegicus, UniProt Q62758); assay: biochemical; conditions: carbachol (3 μM)-contracted rat esophagus TMM; 37° C.; tissues from 5 rats; read-out: 5-HT4 Agonism (Rat TMM) In Vitro Assay: EC50 Values
T1 construct: One 2 cm segment of intrathoracic esophagus proximal to the diaphragm was removed from male rats; from tissue; host or cells: rat intrathoracic oesophagus, inner tunica muscularis mucosae
Description: as §1
Agonist activity was determined utilizing relaxation of carbachol-contracted rat tunica muscularis mucosae. One 2 cm segment of intrathoracic esophagus proximal to the diaphragm was removed from male rats, weighing approximately 300 gm, and the outer muscle layers removed. The inner tunica muscularis mucosa was mounted under 0.2-0.3 g of tension in a tissue bath containing oxygenated Tyrode's solution at 37° C. […] Following a 30 min equilibrium period, tissues were isometrically contracted with carbachol (3 μM) to obtain a tonic contraction. A stable plateau was obtained within 20 min when test compound was added cumulatively to relax the muscle strip. EC50 values were obtained for each agonist in tissues from 5 rats.

5-HT3 receptor = target: T2, 5-HT3 receptor (Rattus norvegicus, UniProt P35563); assay: Serotonin (5-HT3) radioligand binding, [3H]-GR65630, rat brain cortex membranes; conditions: Ki, [3H]-GR65630 0.2 nM; 60 min, 22° C.
T2 construct: Brain cortices were obtained from male rats and a membrane fraction prepared by standard techniques; from tissue; host or cells: rat brain cortex membranes
T2 sequence (P35563 24-483): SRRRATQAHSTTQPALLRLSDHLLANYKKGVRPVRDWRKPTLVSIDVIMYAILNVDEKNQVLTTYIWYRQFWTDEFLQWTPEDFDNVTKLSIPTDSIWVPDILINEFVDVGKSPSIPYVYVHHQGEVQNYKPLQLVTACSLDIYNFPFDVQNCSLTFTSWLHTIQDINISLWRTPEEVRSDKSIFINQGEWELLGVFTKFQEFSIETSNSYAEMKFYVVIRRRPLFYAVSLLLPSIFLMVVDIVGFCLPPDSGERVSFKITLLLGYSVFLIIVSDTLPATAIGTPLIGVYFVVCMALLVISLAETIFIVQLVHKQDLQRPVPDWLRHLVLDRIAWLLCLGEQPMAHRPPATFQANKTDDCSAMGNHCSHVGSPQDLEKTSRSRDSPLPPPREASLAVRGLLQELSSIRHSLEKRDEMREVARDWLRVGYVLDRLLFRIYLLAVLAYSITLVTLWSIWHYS
Description: GR65630 binds to the 5-HT3 receptor. Brain cortices were obtained from male rats and a membrane fraction prepared by standard techniques. 0.04 mg of membrane prep was incubated with 0.2 nM […] for 60 minutes at 22° C. […] Membranes were filtered and washed times and the filters were counted to determine [3H]-GR65630 specifically bound. Kilpatrick G. J., Jones B. J. and Tyers M. B. Identification and distribution of 5-HT3 receptors in rat brain using radioligand binding assay. Nature, 330 : 746-748, 1987.

T1 sequence (Q62758 whole entry): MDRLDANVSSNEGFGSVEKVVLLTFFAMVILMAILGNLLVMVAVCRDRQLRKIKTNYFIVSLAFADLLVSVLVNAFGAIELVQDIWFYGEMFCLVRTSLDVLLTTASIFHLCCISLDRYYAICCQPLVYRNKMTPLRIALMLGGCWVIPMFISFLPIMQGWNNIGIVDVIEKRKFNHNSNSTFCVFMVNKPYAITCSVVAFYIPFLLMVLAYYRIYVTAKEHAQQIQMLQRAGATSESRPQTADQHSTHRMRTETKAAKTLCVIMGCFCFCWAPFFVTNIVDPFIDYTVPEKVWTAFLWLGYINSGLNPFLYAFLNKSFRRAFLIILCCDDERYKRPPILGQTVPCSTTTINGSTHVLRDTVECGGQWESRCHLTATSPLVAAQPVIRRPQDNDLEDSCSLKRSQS

SMILES | Minimum Effective Dose (MED) (5-HT3) [mg/kg] | EC50 (5-HT4 receptor) [nM] | Ki (5-HT3 receptor) [nM]
CC[C@@H](CO)NC(=O)[C@@H]1C=C2c3cccc4c3c(cn4C)C[C@H]2N(C)C1 [methylsergide] | > 10 | – | –
CC(C)n1c(=O)n(C(=O)NCCC23CCCN2CCC3)c2ccccc21 [Example 13, N-[2-(hexahydro-7aH-pyrrolizin-7a-yl)ethyl]-2,3-dihydro-3-(1-methylethyl) 2-oxo-1H-benzimidazole-1-carboxamide] | 10 | 179 | 120
